Data: PMC8953565 (2022)

Assays:
[1] = system: FAM-MG-36-12 (DNA, aptamer) CCATGCGACGGACAGCACGTGTCACCGCGATCAGCC; assay: graphene oxide FRET fluorescence recovery; settings: 137 mM NaCl, 2.7 mM KCl, 1 mM CaCl2, 0.5 mM MgCl2; DPBS pH 7.4, room temperature; 10 nM aptamer on GO; compound at twice the MG concentration
[2] = system: MG-3 (DNA, aptamer) CGAGACACAGTCACGTGCATCCAGTCAGCATGCGTC; assay: ITC; settings: 137 mM NaCl, 2.7 mM KCl, 1 mM CaCl2, 0.5 mM MgCl2; DPBS pH 7.4, 25 °C; screen with 100 μM candidate and 10 mM MG; weak thermal variation
[3] = system: MG-23 (DNA, aptamer) CGCTACGACAGACAGCGTCGAGCACACAACGTTGCG; assay: ITC; settings: 137 mM NaCl, 2.7 mM KCl, 1 mM CaCl2, 0.5 mM MgCl2; DPBS pH 7.4, 25 °C; screen with 100 μM candidate and 10 mM MG; weak thermal variation
[4] = system: MG-36-17 (DNA, aptamer) CGCAGCGCGGCAGACAGTCAGGCTCAGCACGTGGCA; assay: ITC; settings: 137 mM NaCl, 2.7 mM KCl, 1 mM CaCl2, 0.5 mM MgCl2; DPBS pH 7.4, 25 °C; 2 mM MG into 5 μM aptamer; one-site model
[5] = system: MG-20 (DNA, aptamer) CGCACAGCAAGACAGCCAGTCAACAGCCGCGAATGT; assay: ITC; settings: 137 mM NaCl, 2.7 mM KCl, 1 mM CaCl2, 0.5 mM MgCl2; DPBS pH 7.4, 25 °C; screen with 100 μM candidate and 10 mM MG; weak thermal variation
[6] = system: MG-1 (DNA, aptamer) CCGCCACAGGACAGCCAGTCTGATCGCCATGACGAC; assay: ITC; settings: 137 mM NaCl, 2.7 mM KCl, 1 mM CaCl2, 0.5 mM MgCl2; DPBS pH 7.4, 25 °C; screen with 100 μM candidate and 10 mM MG; weak thermal variation
[7] = system: MG-24 (DNA, aptamer) ACGCACGTACGGCCAGTCATATGCGCACCGCGTTCA; assay: ITC; settings: 137 mM NaCl, 2.7 mM KCl, 1 mM CaCl2, 0.5 mM MgCl2; DPBS pH 7.4, 25 °C; screen with 100 μM candidate and 10 mM MG; weak thermal variation
[8] = system: MG-2 (DNA, aptamer) AGCCCGAGCTGCAGCCAGAATGTGCCACGTGTACGT; assay: ITC; settings: 137 mM NaCl, 2.7 mM KCl, 1 mM CaCl2, 0.5 mM MgCl2; DPBS pH 7.4, 25 °C; screen with 100 μM candidate and 10 mM MG; weak thermal variation
[9] = system: MG-22 (DNA, aptamer) CGCGCACAGACAGCGTCATGGCCACGTACAGTTCCT; assay: ITC; settings: 137 mM NaCl, 2.7 mM KCl, 1 mM CaCl2, 0.5 mM MgCl2; DPBS pH 7.4, 25 °C; screen with 100 μM candidate and 10 mM MG; weak thermal variation
[10] = system: MG-5 (DNA, aptamer) CCCCGACAGCCGGCACAATGTGTCTGCCACGGACGT; assay: ITC; settings: 137 mM NaCl, 2.7 mM KCl, 1 mM CaCl2, 0.5 mM MgCl2; DPBS pH 7.4, 25 °C; screen with 100 μM candidate and 10 mM MG; weak thermal variation
[11] = system: MG-15 (DNA, aptamer) CGGCCAGACGACAGCCAGTCACCGGACACGATCAGG; assay: ITC; settings: 137 mM NaCl, 2.7 mM KCl, 1 mM CaCl2, 0.5 mM MgCl2; DPBS pH 7.4, 25 °C; screen with 100 μM candidate and 10 mM MG; weak thermal variation
[12] = system: MG-13 (DNA, aptamer) ACGCATCGCGAACAGCCGTGCCGTGTCCACGTACAG; assay: ITC; settings: 137 mM NaCl, 2.7 mM KCl, 1 mM CaCl2, 0.5 mM MgCl2; DPBS pH 7.4, 25 °C; screen with 100 μM candidate and 10 mM MG; weak thermal variation
[13] = system: MG-9 (DNA, aptamer) TCTCGCAACAGCCAGCGTCATGTGACCACGGAACCA; assay: ITC; settings: 137 mM NaCl, 2.7 mM KCl, 1 mM CaCl2, 0.5 mM MgCl2; DPBS pH 7.4, 25 °C; screen with 100 μM candidate and 10 mM MG; weak thermal variation
[14] = system: MG-36-12 (DNA, aptamer) CCATGCGACGGACAGCACGTGTCACCGCGATCAGCC; assay: ITC; settings: 137 mM NaCl, 2.7 mM KCl, 1 mM CaCl2, 0.5 mM MgCl2; DPBS pH 7.4, 25 °C; 2 mM MG into 5 μM aptamer; one-site model
[15] = system: MG-6 (DNA, aptamer) CGCAACGCGGCAACAGAGCACAGATCGCACAGACTG; assay: ITC; settings: 137 mM NaCl, 2.7 mM KCl, 1 mM CaCl2, 0.5 mM MgCl2; DPBS pH 7.4, 25 °C; screen with 100 μM candidate and 10 mM MG; weak thermal variation
[16] = system: MG-14 (DNA, aptamer) CACCGCCAGGGACAGCCAGTCACGTAGCCCGGAACG; assay: ITC; settings: 137 mM NaCl, 2.7 mM KCl, 1 mM CaCl2, 0.5 mM MgCl2; DPBS pH 7.4, 25 °C; screen with 100 μM candidate and 10 mM MG; weak thermal variation
[17] = system: MG-36-16 (DNA, aptamer) CCACCCGACAGCCAGTCACGCGCATCGTACAGACCG; assay: ITC; settings: 137 mM NaCl, 2.7 mM KCl, 1 mM CaCl2, 0.5 mM MgCl2; DPBS pH 7.4, 25 °C; 2 mM MG into 5 μM aptamer; one-site model
[18] = system: MG-21 (DNA, aptamer) CCATGCAGCCAGCGTCCACCGTCCGTACAGTACGTG; assay: ITC; settings: 137 mM NaCl, 2.7 mM KCl, 1 mM CaCl2, 0.5 mM MgCl2; DPBS pH 7.4, 25 °C; screen with 100 μM candidate and 10 mM MG; weak thermal variation
[19] = system: MG-10 (DNA, aptamer) CGCGCAGCGGCAGACAGTCAGACTGCGACGCACGTT; assay: ITC; settings: 137 mM NaCl, 2.7 mM KCl, 1 mM CaCl2, 0.5 mM MgCl2; DPBS pH 7.4, 25 °C; screen with 100 μM candidate and 10 mM MG; weak thermal variation
[20] = system: MG-11 (DNA, aptamer) CATGCCCAACGACATGCAGCACGTGGCCATGCACAA; assay: ITC; settings: 137 mM NaCl, 2.7 mM KCl, 1 mM CaCl2, 0.5 mM MgCl2; DPBS pH 7.4, 25 °C; screen with 100 μM candidate and 10 mM MG; weak thermal variation
[21] = system: MG-4 (DNA, aptamer) TGCAACACAACAGCCAGTCATGCCGGTGCACAGTCA; assay: ITC; settings: 137 mM NaCl, 2.7 mM KCl, 1 mM CaCl2, 0.5 mM MgCl2; DPBS pH 7.4, 25 °C; screen with 100 μM candidate and 10 mM MG; weak thermal variation
[22] = system: MG-19 (DNA, aptamer) CGCAGACAGCCAGTCAGGGAGCGTCCAGTCCGACAC; assay: ITC; settings: 137 mM NaCl, 2.7 mM KCl, 1 mM CaCl2, 0.5 mM MgCl2; DPBS pH 7.4, 25 °C; screen with 100 μM candidate and 10 mM MG; weak thermal variation
[23] = system: MG-7 (DNA, aptamer) CGAGCCGAACGAGACGTCCAGTCCGTGCCCACGCAC; assay: ITC; settings: 137 mM NaCl, 2.7 mM KCl, 1 mM CaCl2, 0.5 mM MgCl2; DPBS pH 7.4, 25 °C; screen with 100 μM candidate and 10 mM MG; weak thermal variation
[24] = system: MG-18 (DNA, aptamer) CCGCAGCACGGTCGTACAGCAGCTGCCACGGCATCC; assay: ITC; settings: 137 mM NaCl, 2.7 mM KCl, 1 mM CaCl2, 0.5 mM MgCl2; DPBS pH 7.4, 25 °C; screen with 100 μM candidate and 10 mM MG; weak thermal variation
[25] = system: MG-8 (DNA, aptamer) TGTGCCCACAACTCCAGTCACGTTCGTCCAGCTCAG; assay: ITC; settings: 137 mM NaCl, 2.7 mM KCl, 1 mM CaCl2, 0.5 mM MgCl2; DPBS pH 7.4, 25 °C; screen with 100 μM candidate and 10 mM MG; weak thermal variation
[26] = system: FAM-MG-36-17 (DNA, aptamer) CGCAGCGCGGCAGACAGTCAGGCTCAGCACGTGGCA; assay: graphene oxide FRET fluorescence recovery; settings: 137 mM NaCl, 2.7 mM KCl, 1 mM CaCl2, 0.5 mM MgCl2; DPBS pH 7.4, room temperature; 10 nM aptamer on GO; compound at twice the MG concentration
[27] = system: FAM-MG-76-16-6A (DNA, aptamer) AAAAAAGTTCGTGGTGTGCTGGATGTCCACCCGACAGCCAGTCACGCGCATCGTACAGACCGTGACACATCCAGCAGCACGA; assay: graphene oxide FRET fluorescence recovery; settings: 137 mM NaCl, 2.7 mM KCl, 1 mM CaCl2, 0.5 mM MgCl2; DPBS pH 7.4, room temperature; 10 nM aptamer on GO; compound at twice the MG concentration

## NN1CCOC1=O
[1]
  binding: no

## Nc1ccc(S(=O)(=O)Nc2ccccn2)cc1
[1]
  binding: no

## CN(C)c1ccc(C(=C2C=CC(=[N+](C)C)C=C2)c2ccccc2)cc1
[2]
  binding: no
[3]
  binding: no
[4]
  Kd: 102.46 µM
[5]
  binding: no
[6]
  binding: no
[7]
  binding: no
[8]
  binding: no
[9]
  binding: no
[10]
  binding: no
[11]
  binding: no
[12]
  binding: no
[13]
  binding: no
[14]
  Kd: 169.78 µM
[15]
  binding: no
[16]
  binding: no
[17]
  Kd: 71.94 µM
[18]
  binding: no
[19]
  binding: no
[20]
  binding: no
[21]
  binding: no
[22]
  binding: no
[23]
  binding: no
[24]
  binding: no
[25]
  binding: no

## NN1CC(=O)NC1=O
[1]
  binding: no

## Cc1cc(C)nc(NS(=O)(=O)c2ccc(N)cc2)n1
[1]
  binding: no
[26]
  binding: no

## NN1CC(CN2CCOCC2)OC1=O (stereo not shown)
[1]
  binding: no

## CN(C)c1ccc(C(=C2C=CC(=[N+](C)C)C=C2)c2ccc(N(C)C)cc2)cc1
[27]
  binding: no
[1]
  binding: no
[26]
  binding: no

## NNC(N)=O
[1]
  binding: no

## O=C(N[C@H](CO)[C@H](O)c1ccc([N+](=O)[O-])cc1)C(Cl)Cl
[27]
  binding: no
[1]
  binding: no
[26]
  binding: no

## CN(C)c1ccc(C(c2ccccc2)c2ccc(N(C)C)cc2)cc1
[27]
  binding: no
[1]
  binding: no
[26]
  binding: no
